# Measured values reported in article PMC3565020 (ChemMedChem, 2012).
# Where “and” joins values, the source holds several entries; their conditions need not be identical. Identical values can stand only once. Like-named read-outs stand apart in the source and are kept apart here.
# Assays:
# [1] = tested on: J-774 murine macrophages; experiment: Cytotoxicity against murine macrophage cells; conditions: for Cytotoxicity J-774 murine macrophages CC50 / CC50: J-774, Alamar blue; for CC50: read-out: Cytotoxicity J-774 murine macrophages CC50
# [2] = tested on: L. donovani promastigotes; experiment: L. donovani promastigote viability, 72 hour Alamar blue assay; assay type: cell-based, Leishmania donovani; conditions: for IC50: read-out: L. donovani Promastigotes IC50
# [3] = tested on: L. donovani axenic amastigotes; experiment: L. donovani axenic amastigote viability, 72 hour Alamar blue assay; assay type: cell-based, Leishmania donovani
# [4] = tested on: LU-1 human lung carcinoma cell line; experiment: Sulforhodamine; assay type: cell-based; conditions: for Cytotoxicity LU-1 CC50 / CC50: LU-1 human lung carcinoma, SRB; for CC50: read-out: Cytotoxicity LU-1 CC50
# [5] = Cytotoxicity against murine macrophage cells; conditions: mouse
# [6] = tested on: VERO cells; conditions: previous report; cited from earlier work
# [7] = Sulforhodamine; assay type: cell-based, human; conditions: human
# [8] = 72 hour Alamar blue, pH 5.5, 37°C
# [9] = read-out: L. donovani Axenic amastigotes IC50, 72 hour Alamar blue, pH 5.5, 37°C
Structure (SMILES),Cytotoxicity J-774 murine macrophages CC50 [1],"L. donovani Promastigotes IC50 ([2]; 72 hour Alamar blue, 26°C)","IC50 ([2]; 72 hour Alamar blue, 26°C)","L. donovani Axenic amastigotes IC50 [3, 8]",Cytotoxicity LU-1 CC50 [4],CC50 ([7]; LU-1 lung carcinoma cells),CC50 [1],"IC50 [3, 9]",CC50 [4],other results
Cn1c2ccccc2c2ccccc21 [Compound 16],NC (NC (Noncytotoxic): CC50 > 40 μg/mL),37.0 µg/mL,204 µM,NA (NA (Not active): IC50 > 40 μg/mL),NC (NC (Noncytotoxic): CC50 > 40 μg/mL),,,,,
"COc1ccc2[nH]c3cc(O)c(C=O)cc3c2c1 [Compound 6a, lansine]",,,,,,,,,,"SI-2 (Selectivity Index-2) = CC50 (J-774)/IC50 (amastigotes) ([1]; J-774 vs axenic amastigotes): 2; CC50 [5]: 20 µg/mL and 82.9 µM; CC values in VERO cells [6]: > 102 µg/mL; IC50 ([2]; Leishmania donovani, 72 h): 89.1 µM and 21.5 µg/mL; IC50 ([3]; Leishmania donovani, 72 h, pH 5.5, read-out: L. donovani Axenic amastigotes IC50): 11 µg/mL and 45.6 µM; SI-1 (Selectivity Index-1) = CC50 (LU-1)/IC50 (amastigotes) ([4]; LU-1 vs axenic amastigotes): 2; CC50 [7]: 16.5 µg/mL and 68.4 µM"
"C[C@@H]1[C@H](O)[C@@H](C)/C=C/C=C/C=C/C=C/C=C/C=C/C=C/[C@H](O[C@@H]2O[C@H](C)[C@@H](O)[C@H](N)[C@@H]2O)C[C@@H]2O[C@](O)(C[C@@H](O)C[C@@H](O)[C@H](O)CC[C@@H](O)C[C@@H](O)CC(=O)O[C@H]1C)C[C@H](O)[C@H]2C(=O)O [Amphotericin B, reference compound]",,,,,,> 40 µg/mL,,,,
O=Cc1cc2c(cc1O)[nH]c1ccccc12 [Compound 6b],21 µg/mL,35.4 µg/mL,168 µM,11.0 µg/mL,45 µg/mL,,99.4 µM,52 µM,213 µM,
CCn1c2ccccc2c2cc(C=O)ccc21 [Compound 14],21 µg/mL,38.6 µg/mL,173 µM,NA (NA (Not active): IC50 > 40 μg/mL),25 µg/mL,,94.1 µM,,112 µM,
"COc1ccc2[nH]c3cc(OC)c(C=O)cc3c2c1 [Compound 8, 2,6-Dimethoxy-9H-carbazole-3-carbaldehyde]",,,,,,> 40 µg/mL,,,,CC50 ([5]; J774 macrophage cells): > 40 µg/mL
O=Cc1cc2c(cc1O)[nH]c1ccc(C(F)(F)F)cc12 [Compound 6c],9.8 µg/mL,7.3 µg/mL,26.2 µM,6.0 µg/mL,21 µg/mL,,35.1 µM,21.5 µM,75.2 µM,
COc1ccc2[nH]c3cc(O)c(C)cc3c2c1 [Compound 13],20 µg/mL,17.7 µg/mL,78 µM,11.5 µg/mL,30 µg/mL,,88.1 µM,50.6 µM,132 µM,
O=Cc1cc2c(cc1O)[nH]c1ccc(OC(F)(F)F)cc12 [Compound 6d],8.0 µg/mL,3.7 µg/mL,12.6 µM,2.1 µg/mL,45 µg/mL,,27.1 µM,7.1 µM,152 µM,
COc1ccc2[nH]c3cc(O)c(CO)cc3c2c1 [Compound 11],NC (NC (Noncytotoxic): CC50 > 40 μg/mL),NA (NA (Not active): IC50 > 40 μg/mL),,10.0 µg/mL,> 60 µg/mL,,,41.1 µM,> 247 µM,
Oc1ccc2c(c1)[nH]c1ccccc12 [Compound 15],NC (NC (Noncytotoxic): CC50 > 40 μg/mL),28.5 µg/mL,156 µM,10.0 µg/mL,40 µg/mL,,,54.6 µM,218 µM,
"N=C(N)c1ccc(OCCCCCOc2ccc(C(=N)N)cc2)cc1 [Pentamidine, reference compound]",,,3.5 µM,,,0.5 µg/mL and 1.5 µM,,2.9 µM,,
O=Cc1cc2c(cc1O)[nH]c1ccc([N+](=O)[O-])cc12 [Compound 6f],20.0 µg/mL,NA (NA (Not active): IC50 > 40 μg/mL),,NA (NA (Not active): IC50 > 40 μg/mL),NC (NC (Noncytotoxic): CC50 > 40 μg/mL),,78 µM,,,
"O=Cc1cc2c(cc1O)[nH]c1ccc(O)cc12 [Compound 7, 2,6-Dihydroxy-9H-carbazole-3-carbaldehyde]",,,,,,> 40 µg/mL,,,,CC50 ([5]; J774 macrophage cells): 32 µg/mL and 141 µM
COc1ccc2[nH]c3ccc(C=O)cc3c2c1 [Compound 5g],NC (NC (Noncytotoxic): CC50 > 40 μg/mL),27 µg/mL,120 µM,NA^[g] (NA (Not active): IC50 > 40 μg/mL),NC^[h] (NC (Noncytotoxic): CC50 > 40 μg/mL),,,,,CC values in VERO cells [6]: > 102 µg/mL
"COc1ccc2c(c1)c1cc(C=O)c(OC)cc1n2C [Compound 9, 2,6-dimethoxy-9-methyl-9H-carbazole-3-carbaldehyde]",,,,,,> 40 µg/mL,,,,CC50 ([5]; J774 macrophage cells): > 40 µg/mL
